Experimental data reported in publication PMC11442132, “Discovery of β‐nitrostyrene derivatives as potential quorum sensing inhibitors for biofilm inhibition and antivirulence factor therapeutics against Serratia marcescens” (mLife, 2024).

Target: T1, SmaR (Serratia marcescens, UniProt Q14RS3)
T1 construct: pure recombinant protein
Experiment: microscale thermophoresis
Format: binding

T1 sequence (Q14RS3 1-248): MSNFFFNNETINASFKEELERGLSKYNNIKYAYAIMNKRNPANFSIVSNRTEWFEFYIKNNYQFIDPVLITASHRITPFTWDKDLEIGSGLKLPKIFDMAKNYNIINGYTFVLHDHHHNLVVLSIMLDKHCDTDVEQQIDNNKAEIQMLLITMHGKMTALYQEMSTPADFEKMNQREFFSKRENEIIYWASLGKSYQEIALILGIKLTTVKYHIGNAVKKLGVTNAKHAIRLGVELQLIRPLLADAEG

Work on Cc1ccc(/C=C/[N+](=O)[O-])cc1 [compound 28, (E)‐1‐methyl‐4‐(2‐nitrovinyl)benzene] yielded a Kd of 38.9 µM.
